# Data published in patent publication US8754233B2, “Pyrazolylbenzothiazole derivatives and their use as therapeutic agents” (Dermira (Canada), Inc., priority 2002, dated 2014).
# Tests used:
# [1] = tested on: IL-12 on macrophages; assay: Inhibition of IL-12 release from stimulated macrophages; type: cell-based, mouse; details: LPS and IFN-γ stimulated primary macrophages, ELISA
# Protocol: Peritoneal exudate macrophages were isolated by peritoneal lavage with ice-cold sterile physiological saline 24 hours after intraperitoneal injection of BALB/c mice with 0.5 mL of sterile Zymosan A (1 mg/0.5 mL 0.9% saline). […] Murine primary macrophage are activated following incubation with LPS in the presence of sub-optimal doses of IFN-γ. Upon activation, macrophages participate actively in the onset of inflammation by releasing bioactive molecules that amplify the initial inflammatory response. […] Briefly, IL-12 levels in the supernatants from stimulated macrophages were determined with PharMingen's OptEIA™ ELISA set developed using an anti-mouse IL-12 antibody pair and mouse rIL-12 standard (PharMingen). Maxisorp™ F16 multiwell strips (Nunc, Roskilde, Denmark) were coated with anti-mouse IL-12 capture Ab (at recommended concentration) in 0.1 M NaHCO3, pH 9.5, 100 μL/well, overnight at 4° C. […] Plates were washed 3× with PBST and duplicate samples (100 μL/well) or standards (100 μL/well) in diluent buffer were incubated for 2 h. Plates were washed five times with PBST and incubated with biotinylated anti-mouse IL-12 and avidin-horseradish peroxidase (HRP) conjugate (at concentrations recommended by the manufacturer) for 1 h. […] Peritoneal exudate macrophages were isolated by peritoneal lavage with ice-cold sterile physiological saline 24 hours after intraperitoneal injection of BALB/c mice with 0.3 ml of sterile zymosan A (1 mg/0.5 mL 0.9% saline). […] All treatments were replicated six times. Cells were incubated for an additional 24 hours, and cell free culture supernatants from each well were collected for NO and cytokine determination. The remaining cells were stained with crystal violet to determine effect of the compound on cell survival.
# [2] = tested on: TNFa on macrophages; assay: Inhibition of TNFα release from stimulated macrophages; type: cell-based, mouse; details: LPS and IFN-γ stimulated primary macrophages, ELISA
# Protocol: Peritoneal exudate macrophages were isolated by peritoneal lavage with ice-cold sterile physiological saline 24 hours after intraperitoneal injection of BALB/c mice with 0.5 mL of sterile Zymosan A (1 mg/0.5 mL 0.9% saline). […] Murine primary macrophage will get activated following incubation with LPS in the presence of sub-optimal doses of IFN-γ. […] TNF-αlevels in the supernatants from stimulated macrophages were determined with PharMingen's OptEIA TNF-α kit (PharMingen). The experiment was performed at room temperature, about 21° C., unless otherwise stated. The microwells (F8 MaxiSorp™ Loose/Nunc-Immuno Module; Gibco/BRL) were coated with 100 μl/well of capture antibody (at the recommended concentration) and incubated overnight at 4° C. […] Next, the solution was removed and the plates were washed 5× with wash buffer. The TNF-αanalysis was initiated by adding duplicate samples (100 μl/well) or standards (100 μl/well) in diluent buffer which were incubated for 2 h. The solution was removed and the plates washed 5× with wash buffer. Enzyme reagent (100 μl) containing biotinylated mouse TNF-αmonoclonal antibody and avidin-horseradish peroxidase conjugate (at concentrations recommended by the manufacturer) was added to each well. The plate was incubated for 1 hour, the solution removed, and the plates washed 7× with wash buffer. […] Colour development was terminated by adding 50 μl of 2N H2SO4. […] Peritoneal exudate macrophages were isolated by peritoneal lavage with ice-cold sterile physiological saline 24 hours after intraperitoneal injection of BALB/c mice with 0.3 ml of sterile zymosan A (1 mg/0.5 mL 0.9% saline). […] All treatments were replicated six times. Cells were incubated for an additional 24 hours, and cell free culture supernatants from each well were collected for NO and cytokine determination. The remaining cells were stained with crystal violet to determine effect of the compound on cell survival.
IC50 [1],IC50 [2],Structure (SMILES)
> 25 µM,17.1 µM,"COc1cc2sc(-c3c(NCCN(C)C)n[nH]c3N)nc2cc1F [N^3-(2-Dimethylaminoethyl)-4-(5-fluoro-6-methoxybenzothiazole)-1H-pyrazole-3,5-diamine]"
23.4 µM,14.7 µM,COc1cc2sc(-c3c(N4CCNCC4)n[nH]c3N)nc2cc1F [4-(5-Fluoro-6-methoxybenzothiazole)-5-piperizin-1-yl-2H-pyrazol-3-ylamine]
